PMC7011996 (Journal of Enzyme Inhibition and Medicinal Chemistry, 2017)

Target: T1, hCA XII (Homo sapiens, UniProt O43570)
T1 construct: gene CA12
Assay: stopped-flow CO2 hydration assay
Format: biochemical

T1 sequence (O43570 25-354): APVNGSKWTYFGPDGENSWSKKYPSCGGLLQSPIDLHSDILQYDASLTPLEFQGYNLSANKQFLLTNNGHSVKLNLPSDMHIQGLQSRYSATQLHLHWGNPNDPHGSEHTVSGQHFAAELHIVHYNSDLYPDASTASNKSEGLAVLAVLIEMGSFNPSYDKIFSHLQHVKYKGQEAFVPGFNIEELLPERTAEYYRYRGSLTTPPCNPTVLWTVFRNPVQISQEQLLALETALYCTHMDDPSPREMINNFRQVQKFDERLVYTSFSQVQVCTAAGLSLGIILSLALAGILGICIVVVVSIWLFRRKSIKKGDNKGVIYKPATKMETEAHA

Ki: 12.5 nM
SMILES: NS(=O)(=O)c1ccc(CC[n+]2c(-c3ccccc3)cc(-c3ccccc3)cc2-c2ccccc2)cc1 [compound 2, 1-(4-sulfamoylphenyl-ethyl)-2,4,6-triphenylpyridinium perchlorate]
